Values of other authors as cited in publication PMC12308805, “Ultrahigh-Throughput Virtual Screening Strategies against PPI Targets: A Case Study of STAT Inhibitors” (Journal of Chemical Information and Modeling, 2025).
Ends that are not written are not given here.

System: STAT3
Details: cited from earlier work

Q: With `CC(C)C[C@H](NC(=O)/C=C/c1ccc(OP(=O)(O)O)cc1)C(=O)N1C[C@H]2C[C@H]2[C@H]1C(=O)N[C@@H](CCC(N)=O)COCc1ccccc1` [CHEMBL583727] as the compound, how does the “Type (known STAT3 active)” value read?
A: Active

Same assay, conditions: sheet 6QHD_actives_decoys, retrospective screening set for STAT3 SH2 domain (PDB 6QHD); decoys are presumed inactives, not tested; ref DUD-E; cited from earlier work

Q: Which Type does the source give for `COCCOC(=O)C1=C(C)NC(SCC(=O)Nc2ccc([N+](=O)[O-])cc2)=C(C#N)[C@@H]1c1ccco1` [Decoy833] here?
A: Inactive (Decoy)

Q: For `O=c1cc(-c2ccc(O)c(O)c2)oc2cc(O[C@@H]3O[C@H](CO[C@@H]4OC[C@@H](O)[C@@H](O)[C@H]4O)[C@@H](O)[C@H](O)[C@H]3O)cc(O)c12` [Decoy795], which Type is on record?
A: Inactive (Decoy)

Q: Which Type does the source give for `COC(=O)[C@@H]1O[C@@H](O[C@@H]2CC[C@@]3(C)[C@@H](CC[C@H]4[C@H]3C(=O)C[C@@]3(C)[C@@H]4CC[C@]3(O)/C(COC(C)=O)=N/NC(N)=O)C2)[C@H](OC(C)=O)[C@@H](OC(C)=O)[C@@H]1OC(C)=O` [Decoy959] here?
A: Inactive (Decoy)

Q: For VAITVLVK [Decoy793], which Type is on record?
A: Inactive (Decoy)

Q: With `CC1(C)CC[C@]2(C(=O)O[C@@H]3O[C@H](CO)[C@@H](O)[C@H](O)[C@H]3O)CC[C@]3(C)C(=CC[C@H]4[C@@]5(C)CC[C@H](O[C@H]6OC[C@@H](O)[C@@H](O)[C@@H]6O)[C@@](C)(CO)[C@H]5CC[C@]43C)[C@@H]2C1` [Decoy930] as the compound, how does the Type read?
A: Inactive (Decoy)

Q: Which Type does the source give for `CCCN[C@H](c1cc(F)ccc1Cl)c1cc(C)ccc1Br` [Decoy850] here?
A: Inactive (Decoy)

Q: For `COc1cc(C[C@@]2(O)CO[C@H](c3ccc(O[C@@H]4O[C@H](CO)[C@@H](O)[C@H](O)[C@H]4O)c(OC)c3)[C@H]2CO)ccc1O` [Decoy816], which Type is on record?
A: Inactive (Decoy)

Q: For `COC(=O)c1[nH]c(C)c(C(=O)C2=C(O)C(=O)N(CCN3CCOCC3)[C@H]2c2cc(OC)c(OC)c(OC)c2)c1C` [Decoy873], which Type is on record?
A: Inactive (Decoy)

Q: With `O=C(CS[C@@H]1NN[C@H](NCc2ccco2)S1)N[C@H](Cc1c[nH]c2ccccc12)C(=O)O` [Decoy825] as the compound, how does the Type read?
A: Inactive (Decoy)

Q: For `CCc1ccc2c(c1)[C@@]1(N[C@@H](Cc3ccc(O)c(O)c3)[C@H]3C(=O)N(CCc4ccc(OC)c(OC)c4)C(=O)[C@H]31)C(=O)N2` [Decoy902], which Type is on record?
A: Inactive (Decoy)

Q: Which Type does the source give for `COc1cc([C@H]2c3cc(OC)c(O[C@H]4O[C@@H](CO)[C@@H](O)[C@@H](O)[C@H]4O)c(OC)c3C[C@@H](CO)[C@@H]2CO)cc(OC)c1O` [Decoy823] here?
A: Inactive (Decoy)

Q: For `CCCCCCCCO[C@@H]1[C@@H](O)[C@H](O)O[C@H](Cn2c(=O)n(C[C@H]3O[C@@H](O)[C@H](O)[C@@H](OCCCCCCCC)[C@@H]3O)c3cc(Cl)ccc32)[C@H]1O` [Decoy957], which Type is on record?
A: Inactive (Decoy)

Q: With `CCOC(=O)c1c(NC(=O)CCSc2nnc(COC)n2N)sc2c1CCCC2` [Decoy934] as the compound, how does the Type read?
A: Inactive (Decoy)

Q: Which Type does the source give for `COc1ccc2[nH]cc(CCN/C(=N/C(=O)/C=C/c3cc(OC)c(OC)c(OC)c3)Nc3nc(C)cc(C)n3)c2c1` [Decoy944] here?
A: Inactive (Decoy)

Q: With `COc1ccccc1NCc1nnc(SCC(=O)Nc2ccc3c(c2)C(O)=NC3=O)n1-c1ccccc1` [Decoy768] as the compound, how does the Type read?
A: Inactive (Decoy)

Q: For `CCN(CC)c1ccc2c(-c3ccc(S(=O)(=O)NCCSS(C)(=O)=O)cc3S(=O)(=O)[O-])c3ccc(=[N+](CC)CC)cc-3oc2c1` [Decoy829], which Type is on record?
A: Inactive (Decoy)

Same assay, conditions: sheet 6QHD_actives_decoys; retrospective screening set for STAT3 SH2 domain (PDB 6QHD); […]; ref DUD-E; cited from earlier work

Q: For `Nn1c(SCC(=O)Nc2ccc(S(=O)(=O)Nc3nccs3)cc2)nnc1-c1ccncc1` [Decoy406], which Type is on record?
A: Inactive (Decoy)

Q: Which Type does the source give for `COc1ccc(CCN2C(=O)NC(O)=C3C2=NC(=O)[C@@]3(NS(=O)(=O)c2nnc(NC(C)=O)s2)C(F)(F)F)cc1OC` [Decoy687] here?
A: Inactive (Decoy)

Q: With `COc1cc(NS(=O)(=O)c2ccc(NC(=S)NC(=O)c3cc(Cl)cc(Cl)c3)cc2)ncn1` [Decoy392] as the compound, how does the Type read?
A: Inactive (Decoy)

Q: For `COc1ccccc1NS(=O)(=O)c1ccc(OC)c(NS(=O)(=O)c2ccc(C(=O)O)cc2)c1` [Decoy605], which Type is on record?
A: Inactive (Decoy)

Q: With `O=C(NCCNc1ccc(C(F)(F)F)cc1[N+](=O)[O-])c1ccc(CSc2ncn[nH]2)cc1` [Decoy448] as the compound, how does the Type read?
A: Inactive (Decoy)

Q: For `O=c1c(C[C@H](O)CN2CCOCC2)c(O)n(C[C@@H](O)CN2CCOCC2)c(=O)n1C[C@H](O)CN1CCOCC1` [Decoy679], which Type is on record?
A: Inactive (Decoy)

Same assay, conditions: sheet 6QHD_actives_decoys; retrospective screening set for STAT3 SH2 domain (PDB 6QHD); decoys generated with DUD-E and presumed inactive, not tested; ref DUD-E; cited from earlier work

Q: For `CCN(CC)c1ccc(-n2nc3cc(C)c(NC(=S)NC(=O)c4ccc(OC)cc4OC)cc3n2)cc1` [Decoy453], which Type is on record?
A: Inactive (Decoy)

Q: With `O=C(O)c1[nH]nc(-c2ccc(O[C@H]3O[C@@H](CO)[C@@H](O)[C@@H](O)[C@H]3O)cc2O)c1-c1ccc2c(c1)OCCO2` [Decoy397] as the compound, how does the Type read?
A: Inactive (Decoy)

Q: For `CCOC(=O)c1ccc(NC(=O)CSc2ccc3nnc(CCNS(=O)(=O)c4ccc(OC)cc4)n3n2)cc1` [Decoy704], which Type is on record?
A: Inactive (Decoy)

Q: For `C=CCSc1nnc(/N=C(\O)CSc2nnc(N/N=C/c3c(O)ccc4ccccc34)n2N)s1` [Decoy343], which Type is on record?
A: Inactive (Decoy)

Q: Which Type does the source give for `CCN(CC)S(=O)(=O)c1cccc(-c2nnc(SCC(=O)Nc3cc(C)cc(C)c3)n2N)c1` [Decoy726] here?
A: Inactive (Decoy)

Q: Which Type does the source give for `COc1cc2cc(Oc3ccc(CCC(=O)O)c(O[C@@H]4O[C@H](CO)[C@@H](O)[C@H](O)[C@H]4O)c3)c(=O)oc2cc1O` [Decoy393] here?
A: Inactive (Decoy)

Q: For `CCCCCO[C@@H]1[C@H]2OC(C)(C)O[C@H]2O[C@@H]1[C@@H](O)CO[C@@H]1O[C@H](COC(C)=O)[C@@H](OC(C)=O)[C@H](OC(C)=O)[C@H]1NC(C)=O` [Decoy443], which Type is on record?
A: Inactive (Decoy)

Q: For `CCOc1ccc([C@@H]2C(C(=O)c3ccc(Cl)cc3)=C(O)C(=O)N2CCCn2ccnc2)cc1OCC` [Decoy645], which Type is on record?
A: Inactive (Decoy)

Q: For `CCOC(=O)[C@@](NC(=O)c1cccc(Cl)c1)(Nc1ccc(S(=O)(=O)Nc2ccc(OC)nn2)cc1)C(F)(F)F` [Decoy464], which Type is on record?
A: Inactive (Decoy)

Q: Which Type does the source give for `CCOC(=O)c1c(NC(=O)CCSc2nnc(N/N=C/c3ccc(C)cc3)n2N)sc2c1CCCC2` [Decoy449] here?
A: Inactive (Decoy)

Q: For `COC(=O)CCSCCO[C@@H]1O[C@H](CO)[C@@H](O[C@@H]2O[C@H](CO)[C@@H](O)[C@@H](O)[C@H]2O)[C@H](O)[C@H]1NC(C)=O` [Decoy354], which Type is on record?
A: Inactive (Decoy)

Q: For `CCCCC(=O)Nc1ccc(NC(=S)NC(=O)c2ccc(OCC)c([N+](=O)[O-])c2)cc1OC` [Decoy467], which Type is on record?
A: Inactive (Decoy)

Q: With `O=C(O)C[C@H](NC(=O)CN(CCN(CC(=O)O)CC(=O)N[C@@H](CC(=O)O)C(=O)O)CC(=O)O)C(=O)O` [Decoy356] as the compound, how does the Type read?
A: Inactive (Decoy)

Q: Which Type does the source give for `COc1cc(/C=N/NC(=O)CCCCC(=O)N/N=C/c2cc(Br)c(O)c(OC)c2)cc(Br)c1O` [Decoy433] here?
A: Inactive (Decoy)

Q: Which Type does the source give for `C=C[C@@](C)(O)CC/C=C(\C)C(=O)O[C@@H]1[C@@H]2O[C@]2(C)[C@H]2[C@H](O[C@@H]3O[C@H](CO)[C@@H](O)[C@H](O)[C@H]3O)OC=C[C@@]12O` [Decoy691] here?
A: Inactive (Decoy)

Q: For `COc1ccc(OC)c(-n2c(CNC(=O)c3ccc(S(=O)(=O)N(C)C)cc3)nnc2SCC(=O)Nc2ccc(F)cc2)c1` [Decoy528], which Type is on record?
A: Inactive (Decoy)

Q: For `CCOC(=O)CNC(=O)[C@H](c1ccc(O)cc1)N(C(=O)c1snc(C(N)=O)c1N)c1ccccc1CC` [Decoy513], which Type is on record?
A: Inactive (Decoy)

Q: With `Cc1cc(NS(=O)(=O)c2ccc(N/N=C(/C#N)C(=O)Nc3ccc(S(N)(=O)=O)cc3)cc2)no1` [Decoy483] as the compound, how does the Type read?
A: Inactive (Decoy)

Q: For `CC(=O)O[C@@H]1[C@@H](O)[C@@H](O[C@@H](/C=N\N2CCOCC2)[C@@H](CO)O[C@H](O)/C=N/N2CCOCC2)O[C@@H](CO)[C@H]1O` [Decoy660], which Type is on record?
A: Inactive (Decoy)

Q: For `COc1ccc(-n2c(=O)[nH]c3cc([C@@H]4N[C@@H](c5ccc(OC)c(OC)c5)NO4)ccc3c2=O)cc1` [Decoy550], which Type is on record?
A: Inactive (Decoy)

Q: With `Cc1ccc(S(=O)(=O)NCC(=O)N/N=C/c2ccc(OC(=O)c3ccccc3)cc2OC(=O)c2ccccc2)cc1` [Decoy602] as the compound, how does the Type read?
A: Inactive (Decoy)

Q: With `CCc1nnc(NS(=O)(=O)c2ccc(NC(=O)c3ccc(S(=O)(=O)N(CCC#N)CCC#N)cc3)cc2)s1` [Decoy466] as the compound, how does the Type read?
A: Inactive (Decoy)

Q: Which Type does the source give for `O=c1c(-c2ccc(O[C@@H]3O[C@H](CO)[C@@H](O)[C@H](O)[C@H]3O)cc2)coc2c(CN3CCCC3)c(O)c(CN3CCCC3)c(O)c12` [Decoy428] here?
A: Inactive (Decoy)

Q: With `COC(=O)c1ccc(NC(=O)CSc2nc3ccc(NC(=O)CSc4nnc(-c5ccc(N)cc5)n4C)cc3s2)cc1` [Decoy435] as the compound, how does the Type read?
A: Inactive (Decoy)

Q: Which Type does the source give for `CCCCCCCCCC(=O)O[C@@H]1[C@@H](O[C@@]2(CO)O[C@@H](CO)[C@@H](O)[C@H]2O)O[C@@H](CO)[C@@H](OC(=O)C(C)C)[C@H]1OC(=O)C(C)C` [Decoy420] here?
A: Inactive (Decoy)

Q: With `Cc1nn(Cc2ccc(Cl)cc2Cl)c(C)c1NC(=S)Nc1ccc(S(=O)(=O)Nc2ncccn2)cc1` [Decoy456] as the compound, how does the Type read?
A: Inactive (Decoy)

Q: With `Cc1ccc(S(=O)(=O)CNC(=O)[C@H](c2ccc([N+](=O)[O-])cc2)N(Cc2ccco2)C(=O)CO)cc1` [Decoy577] as the compound, how does the Type read?
A: Inactive (Decoy)

Q: Which Type does the source give for `CCCNC(=O)CN1CCN(c2cc(C(=O)O)c3cc(NS(=O)(=O)c4cccs4)ccc3n2)CC1` [Decoy543] here?
A: Inactive (Decoy)

Q: Which Type does the source give for `COc1cc(/N=N/c2ccc(N)cc2)c(C)cc1/N=N/c1c(S(=O)(=O)O)cc2ccc(N)cc2c1O` [Decoy635] here?
A: Inactive (Decoy)

Q: For `CC(=O)N[C@@H]1[C@@H](O)[C@H](O[C@@H]2O[C@H](CO)[C@H](O)[C@H](O[C@@]3(C(=O)O)C[C@H](O)[C@H](NC(C)=O)[C@H]([C@H](O)[C@H](O)CO)O3)[C@H]2O)[C@@H](CO)O[C@H]1O` [Decoy637], which Type is on record?
A: Inactive (Decoy)

Q: With `Cc1ccc(S(=O)(=O)NCCN(CCN(CCNS(=O)(=O)c2ccc(C)cc2)S(=O)(=O)c2ccc(C)cc2)S(=O)(=O)c2ccc(C)cc2)cc1` [Decoy653] as the compound, how does the Type read?
A: Inactive (Decoy)

Q: For `COc1cc([N+](=O)[O-])cc(/C=N/NC(=O)CSc2nnc(-c3cccc(Br)c3)n2C)c1O` [Decoy639], which Type is on record?
A: Inactive (Decoy)

Q: Which Type does the source give for `O=C(NCCCCCCNC(=O)OCCN[C@H]1CCS(=O)(=O)C1)OCCN[C@H]1CCS(=O)(=O)C1` [Decoy454] here?
A: Inactive (Decoy)
